Laboratory results from ChEMBL document CHEMBL5696442, “Discovery of type II inhibitors of TGFβ-activated kinase 1 (TAK1) and mitogen-activated protein kinase kinase kinase kinase 2 (MAP4K2)” (J Med Chem, 2015).
Calls of active or inactive are those of the source. No cut-off for these calls is given here.

What was measured:
[1] = target: T1, EKC/KEOPS complex subunit TP53RK (Homo sapiens) (UniProt Q96S44); assay: Inhibition of PRPK ATP labeling site in human Huh-7 cell lysate at 1 uM by KiNativ Profiling analysis relative to control; assay type: subcellular
T1 sequence (whole entry): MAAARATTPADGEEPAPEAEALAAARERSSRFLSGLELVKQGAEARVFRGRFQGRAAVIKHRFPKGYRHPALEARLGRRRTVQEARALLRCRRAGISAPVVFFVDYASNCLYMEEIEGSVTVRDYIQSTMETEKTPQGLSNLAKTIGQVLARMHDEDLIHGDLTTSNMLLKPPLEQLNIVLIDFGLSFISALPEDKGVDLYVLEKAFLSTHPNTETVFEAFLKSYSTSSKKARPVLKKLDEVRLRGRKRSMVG

[2] = target: T1, EKC/KEOPS complex subunit TP53RK (Homo sapiens); assay: Inhibition of PRPK ATP Loop labeling site in human Huh-7 cells at 1 uM by KiNativ Profiling analysis relative to control; assay type: cell-based
[3] = target: Ribosomal protein S6 kinase alpha-1 (Homo sapiens) (UniProt Q15418); assay: Inhibition of RSK1 domain 1 Lys2 labeling site harbouring DLKPENILLDEEGHIKLTDFGLSK in human Huh-7 cell lysate at 1 uM by KiNativ Profiling analysis relative to control; assay type: subcellular
[4] = target: Serine/threonine-protein kinase mTOR (Homo sapiens) (UniProt P42345); assay: Inhibition of FRAP ATP labeling site in human Huh-7 cell lysate at 1 uM by KiNativ Profiling analysis relative to control; assay type: subcellular
[5] = target: Dual specificity mitogen-activated protein kinase kinase 1 (Homo sapiens) (UniProt Q02750); assay: Inhibition of MAP2K1 Lys2 labeling site harbouring IMHRDVKPSNILVNSR in human Huh-7 cell lysate at 1 uM by KiNativ Profiling analysis relative to control; assay type: subcellular
[6] = target: Calcium/calmodulin-dependent protein kinase type II subunit gamma (Homo sapiens) (UniProt Q13555); assay: Inhibition of CaMK2g Lys1 labeling site harbouring TSTQEYAAKIINTK in human Huh-7 cell lysate at 1 uM by KiNativ Profiling analysis relative to control; assay type: subcellular
[7] = target: Serine/threonine-protein kinase 4 (Homo sapiens) (UniProt Q13043); assay: Inhibition of MST1 Lys2 labeling site harbouring IHRDIKAGNILLNTEGHAK in human Huh-7 cells at 1 uM by KiNativ Profiling analysis relative to control
[8] = target: Calcium/calmodulin-dependent protein kinase type II subunit gamma (Homo sapiens) (UniProt Q13555); assay: Inhibition of CaMK2g Lys2 labeling site in human Huh-7 cell lysate at 1 uM by KiNativ Profiling analysis relative to control; assay type: subcellular
[9] = target: Casein kinase I isoform gamma-2 (Homo sapiens) (UniProt P78368); assay: Inhibition of CSNK1G2 (unknown origin) at 10 uM by Ambit Kinomescan binding assay
[10] = target: Ribosomal protein S6 kinase alpha-3 (Homo sapiens) (UniProt P51812); assay: Inhibition of RSK2 Domain 2 K2 labeling site harbouring DLKPSNILYVDESGNPESIR in human Huh-7 cells at 1 uM by KiNativ Profiling analysis relative to control; assay type: cell-based
[11] = target: Cyclin-dependent kinase-like 2 (Homo sapiens) (UniProt Q92772); assay: Inhibition of CDKL2 (unknown origin) at 10 uM by Ambit Kinomescan binding assay relative to control
[12] = target: T2, Inhibitor of nuclear factor kappa-B kinase subunit epsilon (Homo sapiens) (UniProt Q14164); assay: Inhibition of IKK-epsilon (unknown origin) at 10 uM by Ambit Kinomescan binding assay
T2 sequence (whole entry): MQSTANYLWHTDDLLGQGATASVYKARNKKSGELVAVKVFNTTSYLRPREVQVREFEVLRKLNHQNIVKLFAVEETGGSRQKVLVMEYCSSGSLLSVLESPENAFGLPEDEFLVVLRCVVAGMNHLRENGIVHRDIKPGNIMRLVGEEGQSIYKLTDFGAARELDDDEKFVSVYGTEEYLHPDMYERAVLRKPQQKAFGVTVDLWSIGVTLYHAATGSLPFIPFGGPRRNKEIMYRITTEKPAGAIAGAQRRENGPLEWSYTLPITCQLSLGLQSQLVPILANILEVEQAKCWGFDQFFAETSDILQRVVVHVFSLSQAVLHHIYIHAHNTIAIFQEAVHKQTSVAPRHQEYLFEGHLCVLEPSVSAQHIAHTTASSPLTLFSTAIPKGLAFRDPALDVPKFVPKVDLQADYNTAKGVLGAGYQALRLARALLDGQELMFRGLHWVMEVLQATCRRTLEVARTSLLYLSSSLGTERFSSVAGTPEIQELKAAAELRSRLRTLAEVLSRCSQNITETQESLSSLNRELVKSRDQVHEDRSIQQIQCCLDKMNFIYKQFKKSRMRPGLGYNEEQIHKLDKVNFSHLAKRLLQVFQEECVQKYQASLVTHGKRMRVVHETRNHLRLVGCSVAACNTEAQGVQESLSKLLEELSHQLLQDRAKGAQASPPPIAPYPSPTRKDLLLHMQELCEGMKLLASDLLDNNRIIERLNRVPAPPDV

[13] = target: Cyclin-G-associated kinase (Homo sapiens) (UniProt O14976); assay: Inhibition of GAK (unknown origin) at 10 uM by Ambit Kinomescan binding assay relative to control
[14] = target: SRSF protein kinase 3 (Homo sapiens) (UniProt Q9UPE1); assay: Inhibition of SRPK3 (unknown origin) at 10 uM by Ambit Kinomescan binding assay
[15] = target: Serine/threonine-protein kinase PAK 5 (Homo sapiens) (UniProt Q9P286); assay: Inhibition of PAK7 (unknown origin) at 10 uM by Ambit Kinomescan binding assay
[16] = target: Mitogen-activated protein kinase kinase kinase kinase 4 (Homo sapiens, UniProt O95819); assay: Inhibition of ZC1/HGK Lys2 labeling site in human A-375 cells at 5 uM by KiNativ Profiling analysis relative to control; assay type: cell-based
[17] = target: Peripheral plasma membrane protein CASK (Homo sapiens) (UniProt O14936); assay: Inhibition of CASK Lys1 labeling site in human A-375 cells at 5 uM by KiNativ Profiling analysis relative to control
[18] = target: Mitogen-activated protein kinase kinase kinase kinase 3 (Homo sapiens) (UniProt Q8IVH8); assay: Inhibition of MAP4K3 (unknown origin) at 1 uM by Ambit Kinomescan binding assay relative to control
[19] = target: RAC-alpha serine/threonine-protein kinase (Homo sapiens) (UniProt P31749); assay: Inhibition of AKT1 (unknown origin) at 1 uM by Ambit Kinomescan binding assay relative to control
[20] = target: Serine/threonine-protein kinase SIK3 (Homo sapiens) (UniProt Q9Y2K2); assay: Inhibition of QSK Lys2 labeling site in human A-375 cells at 0.05 uM by KiNativ Profiling analysis relative to control; assay type: cell-based
[21] = target: Phosphatidylinositol 4-kinase beta (Homo sapiens) (UniProt Q9UBF8); assay: Inhibition of PI4KB ATP labeling site harbouring VPHTQAVVLNSKDKAPYLIYVEVLECENFDTTSVPAR in human A-375 cells at 0.05 uM by KiNativ Profiling analysis relative to control; assay type: cell-based
Sequence of Phosphatidylinositol 4-kinase beta (Homo sapiens) (Q9UBF8 2-816 limits assumed): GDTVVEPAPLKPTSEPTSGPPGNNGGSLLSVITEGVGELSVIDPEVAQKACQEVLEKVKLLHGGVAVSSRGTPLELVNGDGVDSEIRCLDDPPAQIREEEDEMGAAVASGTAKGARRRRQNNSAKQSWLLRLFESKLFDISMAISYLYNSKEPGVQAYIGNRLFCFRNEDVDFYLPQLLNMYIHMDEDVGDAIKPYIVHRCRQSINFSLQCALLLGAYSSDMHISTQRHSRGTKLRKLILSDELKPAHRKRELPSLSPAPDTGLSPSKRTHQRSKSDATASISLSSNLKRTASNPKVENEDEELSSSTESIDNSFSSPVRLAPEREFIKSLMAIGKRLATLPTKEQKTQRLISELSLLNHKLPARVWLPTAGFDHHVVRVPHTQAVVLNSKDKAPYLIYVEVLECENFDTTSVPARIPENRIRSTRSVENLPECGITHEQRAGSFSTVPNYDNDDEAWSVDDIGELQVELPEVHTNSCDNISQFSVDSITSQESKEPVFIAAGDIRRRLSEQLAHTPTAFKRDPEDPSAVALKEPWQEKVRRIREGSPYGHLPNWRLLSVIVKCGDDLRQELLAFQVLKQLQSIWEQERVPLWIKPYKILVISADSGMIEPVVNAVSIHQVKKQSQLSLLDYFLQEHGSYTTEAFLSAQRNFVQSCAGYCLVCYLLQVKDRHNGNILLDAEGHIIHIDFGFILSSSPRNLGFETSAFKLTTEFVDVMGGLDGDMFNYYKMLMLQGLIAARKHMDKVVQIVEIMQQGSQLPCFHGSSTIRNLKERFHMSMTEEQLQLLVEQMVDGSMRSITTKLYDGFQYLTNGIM

Sequence of Calcium/calmodulin-dependent protein kinase type II subunit gamma (Homo sapiens) (Q13555 whole entry, canonical isoform): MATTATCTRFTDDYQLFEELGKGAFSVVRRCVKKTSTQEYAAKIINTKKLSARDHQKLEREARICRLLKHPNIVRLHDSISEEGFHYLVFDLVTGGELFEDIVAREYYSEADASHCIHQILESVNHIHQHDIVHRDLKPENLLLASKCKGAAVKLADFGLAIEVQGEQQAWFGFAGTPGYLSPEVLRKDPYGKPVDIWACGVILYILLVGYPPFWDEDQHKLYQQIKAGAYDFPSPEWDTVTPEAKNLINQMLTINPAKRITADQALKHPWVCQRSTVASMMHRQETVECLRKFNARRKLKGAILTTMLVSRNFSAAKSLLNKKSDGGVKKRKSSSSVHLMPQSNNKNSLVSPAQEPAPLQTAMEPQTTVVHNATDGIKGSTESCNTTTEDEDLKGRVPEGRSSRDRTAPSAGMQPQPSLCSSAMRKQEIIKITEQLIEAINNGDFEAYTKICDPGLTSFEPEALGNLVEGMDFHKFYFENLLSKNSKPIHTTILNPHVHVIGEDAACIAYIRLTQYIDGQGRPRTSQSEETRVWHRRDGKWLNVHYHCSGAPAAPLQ
Sequence of SRSF protein kinase 3 (Homo sapiens) (Q9UPE1 whole entry): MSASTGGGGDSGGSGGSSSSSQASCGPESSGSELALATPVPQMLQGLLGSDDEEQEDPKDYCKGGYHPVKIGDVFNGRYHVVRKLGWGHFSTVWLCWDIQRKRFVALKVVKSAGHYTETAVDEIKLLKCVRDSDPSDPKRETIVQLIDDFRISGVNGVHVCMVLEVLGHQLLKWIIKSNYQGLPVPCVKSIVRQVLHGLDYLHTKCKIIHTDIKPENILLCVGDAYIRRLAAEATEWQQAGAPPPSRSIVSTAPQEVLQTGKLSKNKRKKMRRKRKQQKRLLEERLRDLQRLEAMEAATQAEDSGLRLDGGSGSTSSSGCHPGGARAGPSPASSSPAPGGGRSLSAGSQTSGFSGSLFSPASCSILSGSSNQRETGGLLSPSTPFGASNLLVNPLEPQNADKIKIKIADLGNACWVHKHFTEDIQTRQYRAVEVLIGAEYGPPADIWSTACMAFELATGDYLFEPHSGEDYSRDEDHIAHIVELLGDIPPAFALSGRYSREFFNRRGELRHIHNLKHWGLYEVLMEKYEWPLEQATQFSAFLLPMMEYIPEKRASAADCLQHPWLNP
Sequence of Ribosomal protein S6 kinase alpha-3 (Homo sapiens) (P51812 whole entry, the tested form may be a part): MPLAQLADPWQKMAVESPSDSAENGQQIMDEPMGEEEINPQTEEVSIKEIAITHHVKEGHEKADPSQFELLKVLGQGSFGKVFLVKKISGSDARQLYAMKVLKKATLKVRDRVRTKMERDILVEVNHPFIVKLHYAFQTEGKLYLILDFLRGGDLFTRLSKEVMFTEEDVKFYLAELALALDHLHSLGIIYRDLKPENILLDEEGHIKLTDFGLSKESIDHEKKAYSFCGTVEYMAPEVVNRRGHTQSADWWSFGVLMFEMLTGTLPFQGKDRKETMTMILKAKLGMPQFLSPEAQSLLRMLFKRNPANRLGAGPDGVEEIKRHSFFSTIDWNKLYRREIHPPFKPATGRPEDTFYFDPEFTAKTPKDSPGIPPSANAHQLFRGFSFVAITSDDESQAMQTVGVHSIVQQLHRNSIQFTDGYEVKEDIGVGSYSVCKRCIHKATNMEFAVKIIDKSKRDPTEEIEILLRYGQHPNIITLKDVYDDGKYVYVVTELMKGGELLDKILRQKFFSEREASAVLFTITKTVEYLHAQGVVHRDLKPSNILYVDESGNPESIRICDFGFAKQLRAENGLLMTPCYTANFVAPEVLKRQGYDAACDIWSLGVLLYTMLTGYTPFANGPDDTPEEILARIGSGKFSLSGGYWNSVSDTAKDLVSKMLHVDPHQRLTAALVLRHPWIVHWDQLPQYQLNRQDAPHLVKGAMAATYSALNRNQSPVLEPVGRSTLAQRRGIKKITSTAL
Sequence of Peripheral plasma membrane protein CASK (Homo sapiens) (O14936 whole entry, looked up): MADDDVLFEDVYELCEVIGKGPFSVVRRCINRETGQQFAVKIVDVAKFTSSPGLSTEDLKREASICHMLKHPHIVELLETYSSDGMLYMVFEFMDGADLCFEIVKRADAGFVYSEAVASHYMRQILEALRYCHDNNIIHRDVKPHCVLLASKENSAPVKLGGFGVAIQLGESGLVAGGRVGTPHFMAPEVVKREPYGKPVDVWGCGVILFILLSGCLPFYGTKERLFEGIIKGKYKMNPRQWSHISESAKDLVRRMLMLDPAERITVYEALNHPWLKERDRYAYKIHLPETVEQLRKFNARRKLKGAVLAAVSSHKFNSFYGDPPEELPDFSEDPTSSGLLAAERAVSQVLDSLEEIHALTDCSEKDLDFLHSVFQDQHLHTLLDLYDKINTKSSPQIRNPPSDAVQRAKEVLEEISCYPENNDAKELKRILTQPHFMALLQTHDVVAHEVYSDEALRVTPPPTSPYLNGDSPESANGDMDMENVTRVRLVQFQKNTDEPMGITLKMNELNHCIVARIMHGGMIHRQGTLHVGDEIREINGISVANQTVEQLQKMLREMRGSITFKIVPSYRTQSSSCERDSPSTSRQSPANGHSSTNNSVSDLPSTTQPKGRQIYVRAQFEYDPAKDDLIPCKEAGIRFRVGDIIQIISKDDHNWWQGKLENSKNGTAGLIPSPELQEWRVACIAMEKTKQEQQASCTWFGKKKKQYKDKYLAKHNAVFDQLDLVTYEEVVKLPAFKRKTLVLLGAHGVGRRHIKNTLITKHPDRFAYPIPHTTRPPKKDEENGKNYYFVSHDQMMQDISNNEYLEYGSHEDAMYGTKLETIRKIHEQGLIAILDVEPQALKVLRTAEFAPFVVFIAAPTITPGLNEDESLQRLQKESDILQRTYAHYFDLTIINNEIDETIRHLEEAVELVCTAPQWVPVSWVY
Sequence of Serine/threonine-protein kinase 4 (Homo sapiens) (Q13043 whole entry, looked up): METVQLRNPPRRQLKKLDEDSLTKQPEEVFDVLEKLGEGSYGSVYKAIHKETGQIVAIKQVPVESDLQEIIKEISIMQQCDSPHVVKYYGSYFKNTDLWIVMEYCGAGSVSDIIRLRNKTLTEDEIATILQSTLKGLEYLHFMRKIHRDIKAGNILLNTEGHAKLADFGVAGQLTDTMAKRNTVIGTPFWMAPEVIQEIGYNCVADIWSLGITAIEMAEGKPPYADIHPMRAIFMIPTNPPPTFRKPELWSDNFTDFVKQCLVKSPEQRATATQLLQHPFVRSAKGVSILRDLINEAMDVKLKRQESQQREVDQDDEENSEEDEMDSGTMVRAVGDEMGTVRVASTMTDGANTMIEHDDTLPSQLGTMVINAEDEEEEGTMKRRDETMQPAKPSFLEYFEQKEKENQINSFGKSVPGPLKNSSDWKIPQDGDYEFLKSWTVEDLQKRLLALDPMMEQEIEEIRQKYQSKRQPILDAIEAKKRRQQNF
Sequence of Ribosomal protein S6 kinase alpha-1 (Homo sapiens) (Q15418 whole entry, the tested form may be a part): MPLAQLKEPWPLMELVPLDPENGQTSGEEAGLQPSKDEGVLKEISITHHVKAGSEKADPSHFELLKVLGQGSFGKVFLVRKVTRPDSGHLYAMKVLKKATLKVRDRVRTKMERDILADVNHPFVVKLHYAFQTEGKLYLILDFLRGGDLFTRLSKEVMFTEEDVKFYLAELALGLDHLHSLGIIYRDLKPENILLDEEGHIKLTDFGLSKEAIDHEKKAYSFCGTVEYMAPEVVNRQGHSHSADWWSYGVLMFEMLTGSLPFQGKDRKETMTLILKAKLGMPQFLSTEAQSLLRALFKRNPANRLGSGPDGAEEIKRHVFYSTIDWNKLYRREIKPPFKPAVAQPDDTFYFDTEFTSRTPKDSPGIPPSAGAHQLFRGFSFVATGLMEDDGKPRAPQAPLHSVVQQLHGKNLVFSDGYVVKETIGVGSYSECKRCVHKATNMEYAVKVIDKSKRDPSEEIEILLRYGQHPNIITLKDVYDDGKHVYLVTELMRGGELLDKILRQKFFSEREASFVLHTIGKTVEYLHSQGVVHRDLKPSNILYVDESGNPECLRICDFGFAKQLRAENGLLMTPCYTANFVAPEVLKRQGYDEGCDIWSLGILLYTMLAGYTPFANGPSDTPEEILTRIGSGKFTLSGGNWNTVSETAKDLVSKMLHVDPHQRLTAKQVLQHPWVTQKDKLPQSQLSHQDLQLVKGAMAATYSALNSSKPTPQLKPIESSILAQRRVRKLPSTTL

CNc1cc(Oc2cc(C(=O)Nc3cc(N4CCN(C)CC4)cc(C(F)(F)F)c3)ccc2C)ncn1
inhibition [1]: -6% | inhibition [2]: 22.9% | inhibition [3]: 3.1% | inhibition [4]: -1.8% | inhibition [5]: 23.6% | inhibition [6]: 6% | inhibition [7]: -0.8% | inhibition [8]: 0.7%

CCN1CCN(Cc2ccc(NC(=O)c3ccc(C)c(Oc4ccnc5[nH]ccc45)c3)cc2C(F)(F)F)CC1
inhibition [9]: inactive | inhibition [10]: 11.5% | inhibition [11]: 0.9% | inhibition [12]: inactive | inhibition [13]: 31% | inhibition [14]: inactive | inhibition [15]: inactive | inhibition [16]: 92.7% | inhibition [17]: 6.6%

CCN1CCN(Cc2ccc(NC(=O)c3ccc(C)c(/C=C/c4cnc5[nH]ccc5c4OC)c3)cc2C(F)(F)F)CC1
inhibition [18]: 20% | inhibition [19]: 100% | inhibition [20]: 29.6% | inhibition [21]: 11.6%
